In patent US4847293A, “Tetraenyl prostaglandins” (priority 1988, dated 1989):

Key:
diarrhea = experiment: Diarrhea Assay; assay type: in vivo, male Charles River rats
Diarrhea Assay = assay type: in vivo, male Charles River rats; conditions: in vivo

SMILES	Diarrhea Assay Rat (iv), result in words (diarrhea; Rat (iv), at 3200 mcg/kg)	TD50 (Diarrhea Assay; Rat (iv) per table head, method text: intragastric, fasted rats, up to eight hours, read-out: Diarrhea Assay Rat (iv) ED50) [mg/kg]	Diarrhea Assay Rat (iv) ED50 (diarrhea; Rat (iv) per table head, method text: intragastric, fasted rats, up to eight hours) [mg/kg]	selectivity ratio (Diarrhea Assay; ratio of rat diarrhea ED50 to Pavlov pouch antisecretory ED50, read-out: Thrapeutic Index ED50 diarrhea/ED50 antisecretory)
COC(=O)CC/C=C\CC[C@H]1C(=O)C[C@@H](O)[C@@H]1/C=C/CC(C)(O)/C=C/C=C(C)C (relative stereo) [Example 2]	inactive	3.2		
COC(=O)CC/C=C\CC[C@H]1C(=O)C[C@@H](O)[C@@H]1/C=C/CC(C)(O)/C=C/C1=CCCC1 (relative stereo) [Example 1, methyl 7-[3α-hydroxy-2β-(4-hydroxy-4-methyl-6-(1'-cyclopentenyl)-1,5-trans,trans-hexadienyl)-5-oxocyclopentane]-1-α-hept-4-cis-enoate]			3.2	160000
